Test results taken from PMC5318439, “The Novel Toll-Like Receptor 2 Agonist SUP3 Enhances Antigen Presentation and T Cell Activation by Dendritic Cells” (Frontiers in Immunology, 2017).
Where a SMILES comes first, the peptide text is derived from it. The star is where a group is joined. X1 = CCCCCCCCCCCCCCNC(=O)OC[C@H](C*)OC(=O)NCCCCCCCCCCCCCC; Palmitoyl = CCCCCCCCCCCCCCCC(=O)*

Assays:
[1] = tested on: OVA-specific CD8^+ T cells; assay: OCS immunization, OVA-specific CD8+ T cells (CTL induction) in spleen; format: in vivo, C57BL/6 mice; settings: 10 nmol, data not shown; for CTL induction at high dose: OCS immunization; for spleen size at high dose: mice
Method: Splenocytes were X-ray irradiated (1500 Rad) and then coated with OVA (1 mg per spleen) in RPMI 1640 medium (Gibco 11875-119) for 30 min at 37°C. Cells were washed twice with RPMI 1640 medium. […] Seven days post-immunization, OVA-specific CD8^+ T cells in spleen were analyzed by flow cytometry by staining with fluorescence-conjugated antibodies against CD19 (eBioscinece, clone 1D3), CD3 (eBioscinece, clone 145-2C11), CD8 (eBioscinece, clone 53-6.7), and SIINFEKL/H-2Kb-Pentamer (ProImmune F093-4A).
Figure 2 SUP3 induced more vigorous cytotoxic T lymphocytes (CTLs) responses than Pam3CSK4 without excessive production of inflammatory cytokines in vivo. […] The percentages of pentamer positive cells (CD19^− CD3^+ CD8^+ SIINFEKL/H-2Kb-Pentamer^+) in spleens, i.e., the OVA-specific CD8^+ T cells, were determined by flow cytometry (A) and the statistic calculation is presented in (B). Representative data from three independent experiments with three mice in each group were presented. (C,D) Mice were immunized as in (A) for 30 days, then inoculated with OVA-expressing B16 melanoma cells (B16-OVA) (5 × 10^5 cells per mouse) by i.v. injection and analyzed for metastatic tumor formation in the lung 16 days after inoculation. Data from two independent experiments with three mice in each group were shown. […] “n.d.” indicates “not detected.” *p < 0.05, **p < 0.01. TEXT PRINTED IN THE PICTURE: (A) Pam3: Pentamer^+ (% of CD8^+ T): 1.57 (OCS) | (A) SUP3: Pentamer^+ (% of CD8^+ T): 2.98 (OCS) | (E) Pam3: IL-12p40 (ng/mL): n.d | (E) SUP3: IL-12p40 (ng/mL): n.d DOUBTS OF THE COPYIST ABOUT THIS PICTURE: Panel A also prints 0.37 for the control Non and 0.72 for the vehicle control PBS (OCS). Both are left out because they are controls, not test substances. / Panel E prints n.d for the vehicle control PBS in all four plots. These are left out for the same reason.

CD8^+ cDCs = assay: Cytokine production by purified CD8+ cDCs (ELISA); format: cell-based, mice; settings: 200 nM, GM-CSF 20 ng/mL, 24 and 48 h
Method: Splenic DCs (5 × 10^5 cells/mL) were stimulated by Pam3 (200 nM), SUP3 (200 nM), or CpG ODN 1668 (20 nM; Adipogen IAX-200-001) in the GM-CSF (20 ng/mL) supplemented medium for indicated periods. Cell culture supernatants were harvested at indicated time points and stored at −40°C. RAW 264.7 cells and GMDCs were stimulated by lipopolysaccharide (LPS) (20 ng/mL; Adipogen IAX-100-013), Pam3, or SUP3 (both at 200 nM) for 24 h. For in vivo administration, Pam3 (2 nmol per mouse), SUP3 (2 nmol per mouse), or LPS (1 µg per mouse) were intravenously (i.v.) injected via tail veins. Serum was obtained through tail vein bleeding and centrifuged after coagulation and stored at −40°C. Cytokines (IL-6, eBioscience 88-7064; TNFα, eBioscience 88-7324; IL-12p40, BioLegend 431604), chemokine (MIP1α, R&D Systems DY450-05), and total IgM (eBioscience, 88-50470) were quantified by ELISA kits following the instructions of manufacturers.
Figure 4 SUP3 stimulated maturation of CD8^+ conventional dendritic cells (cDCs). […] The surface expression of costimulatory and major histocompatibility complex (MHC) molecules were then analyzed by flow cytometry. […] Splenic CD8^+ cDCs were enriched, and surface expression of CD40 and CD86 was analyzed by flow cytometry. […] Supernatants were harvested 24 and 48 h post-stimulation, and cytokines were measured by ELISA. […]

spleen size at high dose [1] | Compound | CTL induction at high dose [1] | IL-6 and TNFα production by CD8+ cDCs (CD8^+ cDCs)
did not have the same effect | Pam3CSK4 [reference compound] | did not have the same effect | only low levels
enlarged spleens | CCCCCCCCCCCCCCCC(=O)N[C@@H](CSC[C@@H](COC(=O)NCCCCCCCCCCCCCC)OC(=O)NCCCCCCCCCCCCCC)C(=O)NCC(=O)N[C@@H](CCCCN)C(=O)N[C@@H](CCCCN)C(=O)N[C@@H](CCCCN)C(=O)O [SUP3, (2S,5S,8S,14R,18R)-2,5,8-tris(4-aminobutyl)-4,7,10,13,21-pentaoxo-14-palmitamido-18-((tetradecylcarbamoyl)oxy)-20-oxa-16-thia-3,6,9,12,22-pentaazahexatriacontan-1-oic acid] (Palmitoyl-C(X1)GKKK-OH) | decreased CTL induction | only low levels
